Reference: US9173871B2, “Oxazole and thiazole compounds as beta-catenin modulators and uses thereof” (New York University, priority 2008, dated 2015)

Assays:
[1] = test system: Wnt/β-catenin STF-LUC reporter in LNCaP; assay: β-catenin/Wnt-responsive STF16-LUC reporter with S37A β-catenin in LNCaP cells; format: cell-based
Protocol: (§1) LNCaP or LNCaP-abl (ABL) cells were cotransfected with 0.1 μg β-galactosidase and 0.2 μg S37A stabilized β-catenin together with the indicated luciferase reporter constructs; STF16-LUC (β-catenin reporter) and LB1-LUC (AR reporter). […] Luciferase activity was normalized to β-galactosidase expression.
(§2) To determine the IC50 for the β-catenin/Wnt-responsive reporter, cells were cotransfected with β-galactosidase (LacZ) and a constitutively active S37A stabilized β-catenin mutant construct together with the reporter construct, STF16-LUC. To determine the IC50 for the AR-responsive construct, cells were cotransfected with LacZ and the AR responsive reporter construct, ARE-LUC. […] B) AR overexpression circumvents C3 repression of AR-responsive transcription. LNCaP cells were cotransfected with 0.1 μg LacZ and 0.2 μg of the AR responsive reporter construct, ARE-LUC, together with 0, 0.05, 0.1 and 0.2 μg of an AR expression vector. […] Luciferase activity was normalized to LacZ expression.
(§3) 108(15): 5954-63], it had not been determined in prostate cancer cells. […] 69(8): 3332-8].

[2] = test system: ARE-LUC androgen responsive reporter gene in LNCaP; assay: AR responsive luciferase reporter (ARE-LUC / LB1-LUC) in LNCaP cells; format: cell-based
Protocol: as §1, §2, §3

[3] = test system: LNCaP cells; assay: Flow cytometry DNA content (propidium iodide), LNCaP; format: cell-based; settings: 20 μM, 24 hr
Protocol: A) Cells were cultured in phenol-red free RPMI with either 5% charcoal-stripped FBS supplemented with 0.1 nM R1881 (LNCaP) or 10% charcoal-stripped FBS alone (LNCaP-abl). […] Neutral red uptake assay was performed at the end of treatment to estimate the number of viable cells. […] Fixed cells were stained with Propidium Iodide and analyzed for DNA content using flow cytometry. The first and the second red peak and the dashed area represent G0/G1, M and S-phase cell population, respectively.

[4] = test system: LNCaP cells; assay: PARP cleavage immunoblot as marker of apoptosis, LNCaP; format: cell-based; settings: 20 μM, 72 hr
[5] = test system: HEK 293 cells; assay: Neutral red uptake growth assay, HEK293; format: cell-based; settings: HEK 293, higher levels of C3 (10 or 20 μM daily)
Protocol: Left panel; HEK293 cells were cultured in DMEM with 10% FBS. […] Neutral red uptake assay was performed at the end of treatment to estimate the number of viable cells.

[6] = test system: AR and β-catenin target genes in LNCaP cells; assay: Q-PCR of AR and β-catenin target genes in LNCaP cells; format: cell-based; settings: 20 μM, 24 hr
Description: Samples are normalized to RPL19 and E-cadherin and GAPDH are included as controls.
While β-catenin can act as an AR coactivator [Song et al., J Biol Chem, 2005. 280(45): 37853-67], AR mRNA levels are also directly regulated by TCF binding sites in the AR promoter [Yang et al., Oncogene, 2006. 25(24): 3436-44]. […] AR mRNA was quantified along with well-characterized AR target genes, Nkx3.1 and PSA. In addition, CDC20, CDK1 and UBE2C, M phase cell cycle regulatory genes that are AR targets in LNCaP-abl cells were examined [Wang et al., Cell, 2009. 138(2): 245-56]. Levels of c-myc were also examined since c-myc is a known Wnt/β-catenin target gene and assessment of information available through the Memorial Sloan Kettering cBio Cancer Genomics portal [Taylor et al., Cancer Cell, 2010. […] E-cadherin and GAPDH are not affected by C3 treatment.

[7] = test system: AR nascent mRNA; assay: Q-PCR of nascent AR mRNA in LNCaP cells; format: cell-based; settings: 20 μM, four hours, presence or absence of R1881
Protocol: RNA was extracted, treated with deoxyribonuclease and subjected to cDNA synthesis. Relative levels of nascent AR mRNA were analyzed by Q-PCR using primers flanking exon/exon and exon/intron.

[8] = test system: LNCaP-abl tumors; assay: LNCaP-abl xenograft model of castration-resistant prostate cancer in nude mice; format: in vivo; settings: 100 mg/kg daily, intraperitoneal then intratumor injection, FIG. 23
Protocol: Tumor volumes were measured twice weekly.
The cell types for xenograft studies include LNCaP, LNCaP-abl and VCaP, which have all been previously utilized for xenograft studies and are able to recur following castration [Korenchuk et al., In Vivo, 2001. 15(2): 163-8; Culig et al., Br J Cancer, 1999. 81(2): 242-51; Graff et al., J Biol Chem, 2000. 275(32): 24500-5]. VCaP cells harbor a wild type androgen receptor and are androgen-dependent for growth [van Bokhoven et al., Prostate, 2003. 57(3): 205-25]. Other characteristics of cells to be considered in such experiments include the mutational status of AR, pTEN, p53, ETS fusion, and the year derived. Following determination of the MTD, 5×10^6 cells are mixed with an equal volume of Matrigel (BD Biosciences) and injected subcutaneously into the right and left flank of a BALB/c nu/nu outbred mouse. […] To assay growth, tumors are measured with Vernier calipers, and the total volume determined by using the formula 0.52×width×height×depth. Tumor growth is measured twice weekly and animals are also weighed twice weekly to assess toxicity.
Methods: Rapidly cycling LNCaP-abl cells (15×10^6) were mixed with an equal volume of Matrigel and injected subcutaneously into the flank region of nude male mice. […] To assess growth, tumors were measured twice weekly with Vernier calipers, and the total volume was determined.

CCc1ccc(-c2nc(CSCC(=O)NCCc3ccccc3)c(C)o2)cc1 [Compound C3]
IC50 [1]: 140 nM | Wnt reporter gene activity (STF16-LUC) ([1]; 20 uM, 24 hr): inhibits | IC50 ([2]; LNCaP (first of two values)): 1440 nM | AR reporter gene activity (LB1-LUC) ([2]; LNCaP, 20 uM, 24 hr): inhibits | cell cycle effect by flow cytometry [3]: growth arrest of the cells in the G0/G1 phase | PARP cleavage (apoptosis marker) [4]: Increased levels of PARP cleavage | 293 cell growth [5]: somewhat slow | mRNA of E-cadherin and GAPDH (controls) [6]: not affected | mRNA of AR, NR×3.1, CDC20, PSA, CDK1, c-myc and UBE2C ([6]; with or without R1881): diminished | levels of newly synthesized AR mRNA [7]: diminishes | tumor volume [8]: reduced tumor volume to a statistically significant degree
